Data reported in patent US11020358B2, “Method for the anti-senescence of and/or rejuvenating stem cells” (GWO XI STEM CELL APPLIED TECHNOLOGY CO., LTD., priority 2014, dated 2021).
Each block holds one compound with its values, some of them ahead of it.

Columns and labels:
WJSCs = assay: SA-β-gal activity assay in WJSCs; assay type: cell-based
Procedure: Three portions of equal volume of the above culture medium containing the sub-cultured WJSCs were provided. The first and second portions were handled by adding thereinto H2O2 at a final concentration of 100 μM, reacting for 2 hours to induce senescence of the WJSCs, replacing the culture medium with a fresh culture medium, adding thereinto TC at final concentrations of 0 and 6 μM, respectively, and reacting for 6 hours to obtain “H2O2 group (i.e., treated with H2O2 for 2 hours, but not treated with TC)” and “H2O2+TC6 group (i.e., treated with H2O2 for 2 hours and then treated with 6 μM of TC for 6 hours) WJSCs. The third portion without any treatment was referred to as “untreated group” WJSCs.
(§1) The ADSCs in each sample of the group obtained from Example 1 (1) were washed with PBS twice, fixed with 3% formaldehyde and washed with PBS once. […]
(§2) The staining solution was removed. […] The cells were observed and photographed under a microscope with 10-fold magnification, and the percentage of SA-β-gal activity-positive cells was calculated. […]

hBMMSCs = assay: SA-β-gal activity assay in hBMMSCs; assay type: cell-based, human
Procedure: Three portions of equal volume of the above culture medium containing the sub-cultured hBMMSCs were provided. The first and second portions were handled by adding thereinto H2O2 at a final concentration of 100 μM, reacting for 2 hours to induce senescence of the hBMMSCs, replacing the culture medium with a fresh culture medium, adding thereinto TC at final concentrations of 0 and 6 μM respectively, and reacting for 6 hours to obtain “H2O2 group (i.e., treated with H2O2 for 2 hours, but not treated with TC)” and “H2O2+TC6 group (i.e., treated with H2O2 for 2 hours and then treated with 6 μM of TC for 6 hours) hBMMSCs. The third portion without any treatment was referred to as “untreated group” hBMMSCs.
as §1, §2

ADSCs = assay: Analysis of proliferation rate (Ki67 staining); assay type: cell-based, human
Procedure: Four portions of equal volume of the above culture medium containing the sub-cultured ADSCs were separately handled by adding thereinto H2O2 (purchased from Sigma-Aldrich) at a final concentration of 100 μM and reacting for 2 hours to induce senescence of the ADSCs, replacing the culture medium with a fresh culture medium, adding thereinto TC (trans-cinnamaldehyde, purchased from Sigma-Aldrich) at a final concentration of 0, 2, 4 or 6 μM and reacting for 6 hours, so as to obtain “H2O2 group (i.e., treated with H2O2 for 2 hours, but not treated with TC),” “H2O2+TC2 group (i.e., treated with H2O2 for 2 hours and then treated with 2 μM of TC for 6 hours),” “H2O2+TC4 group (i.e., treated with H2O2 for 2 hours and then treated with 4 μM of TC for 6 hours),” and “H2O2+TC6 group (i.e., treated with H2O2 for 2 hours and then treated with 6 μM of TC for 6 hours)” ADSCs. Samples of the “untreated group,” “H2O2 group,” and “H2O2+TC6 group” ADSCs obtained from Example 1 (1) were washed with phosphate buffered saline (PBS) twice, fixed with 3.7% formaldehyde, and blocked with 10% FBS (diluted in PBS). Then, the cells of each sample were washed with PBS once, and reacted with a Ki67 antibody (purchased from Novus biological) at 4° C. overnight. […]

telomerase = assay: Telomerase activity assay (TRAP) in ADSCs; assay type: cell-based, human
Procedure: It has been know that the activity of telomerase plays a key role in controlling cell senescence. The activity of telomerase in each of the “untreated group,” “H2O2 group” and “TC6 group” ADSCs from Example 1 (1) was analyzed by Telomeric Repeat Amplification Protocol (TRAP) as follows. The 3′-end primer of telomere (i.e., Telo TAGGG) was extended by PCR under the catalysis of telomerase to amplify the TTAGGG repeat sequence. Then, signals of the product were detected by enzyme-linked immunosorbent assay (ELISA). The results are shown in FIG. 7, wherein the activity of telomerase in HEK293 cells (without any treatment) was served as a positive control group.

SIRT1 gene = assay: Quantitative RT-PCR of SIRT1 gene in WJSCs; assay type: cell-based
Procedure: Three portions of equal volume of the above culture medium containing the sub-cultured WJSCs were provided. The first and second portions were handled by adding thereinto H2O2 at a final concentration of 100 μM, reacting for 2 hours to induce senescence of the WJSCs, replacing the culture medium with a fresh culture medium, adding thereinto TC at final concentrations of 0 and 6 μM, respectively, and reacting for 6 hours to obtain “H2O2 group (i.e., treated with H2O2 for 2 hours, but not treated with TC)” and “H2O2+TC6 group (i.e., treated with H2O2 for 2 hours and then treated with 6 μM of TC for 6 hours) WJSCs. The third portion without any treatment was referred to as “untreated group” WJSCs. […]
Each of the cDNA of ADSCs of different groups from Experiment (3-1) was handled as follows. […] The mixture was then placed in a real-time quantitative PCR machine (ABI prism 7700 sequence detection system) to perform a reaction for quantifying the gene expression levels. […]
The steps as shown in Experiment (3-2) were repeated, but the cDNA was substituted with the cDNA of the BMMSCs or WJSCs from Experiment (3-1) to conduct quantitative RT-PCR.

[1] = H2O2 group (100 μM 2 h) compared to untreated group
[2] = H2O2+TC6 group (6 μM TC 6 h after H2O2) compared to H2O2 group

activity of telomerase (telomerase; H2O2 group ADSCs compared to untreated group): significantly decreased
SMILES: OO [H2O2, reference compound]
number of the SA-β-gal activity-positive WJSCs (WJSCs; [1]): significantly increased
number of the SA-β-gal activity-positive hBMMSCs (hBMMSCs; [1]): significantly increased
number of the Ki67-positive cells (ADSCs; H2O2 group ADSCs (100 μM 2 h), compared to untreated group): significantly reduced
expression level of SIRT1 gene in WJSCs (SIRT1 gene; H2O2 group compared to untreated group): significantly reduced

SMILES: O=C/C=C/c1ccccc1 [TC, trans-cinnamaldehyde]
number of the SA-β-gal activity-positive WJSCs (WJSCs; [2]): significantly reduced
number of the SA-β-gal activity-positive hBMMSCs (hBMMSCs; [2]): significantly reduced
number of the Ki67-positive cells (ADSCs; H2O2+TC6 group ADSCs (6 μM TC 6 h after H2O2)): increased to be similar to that in “untreated group”
activity of telomerase (telomerase; ADSCs, 6 μM TC (“TC6 group”), compared to H2O2 group): significantly increased
expression level of SIRT1 gene in WJSCs (SIRT1 gene; H2O2+TC6 group compared to H2O2 group): significantly increased
